Reference: publication PMC8121805, “Discovery of first-in-class inhibitors of ASH1L histone methyltransferase with anti-leukemic activity” (Nature Communications, 2021)
pIC50, pKd: −log10 of the molar value. Where “and” joins values, the source holds several entries; their conditions need not be identical. Identical values can stand only once. One block for each molecule: values may come before it.

Experiments:
[1] = biological target: ASH1L (amino acids 2046–2330) (Homo sapiens, UniProt Q9NR48); experiment: Histone methyltransferase (HMT) assay; conditions: for pIC50: IC50, HMT assay with nucleosomes as substrate, mean ± s.d. from two independent experiments
Method: The mixtures of ASH1L and compounds were incubated at room temperature for 1 h. […] The reaction was continued for 1 h at room temperature, then quenched by addition of 10% Trichloroacetic acid (TCA) and then transferred to 96-well filter plates (Millipore sigma, MSFBN6B), washed twice with 10% TCA and then once with 200-proof ethanol. After extensive drying, 70 µL of Microscint-O scintillant (PerkinElmer) was added and counts per minute (CPM) were measured using a MicroBeta microplate counter (PerkinElmer). Titration curves were plotted using Prism (GraphPad Prism 8.0.0.) and IC50 values were calculated.

[2] = system: MV4;11 cells; experiment: MTT cell viability assay; format: cell-based, human; conditions: MTT, 7 days
Method: (§1) FBS and 1% penicillin/streptomycin. […] Media was changed on day 3 or 4 and compounds were resupplied. […] Cell suspensions (100 μL) were transferred to the 96-well plates for each sample in quadruplicate at the time of media change. At day 7, 10 µL of MTT reagent (M6494, Molecular Probes™) was added to each well of the 96 well plate and incubated at 37 °C for 4 h. The formazan was then solubilized by adding 100 µL acidified 10% SDS solution and incubated at 37 °C overnight. Plates were read for absorbance at 570 nm using a PHERAstar BMG microplate reader. The experiments were performed two times in quadruplicates with calculation of mean and SD for each condition. Data were analyzed in Prism 8.0.0 to obtain GI50 values.
(§2) Supplementary Figure 7. […] (a)
(§3) Titration curves from the MTT cell viability assay performed after 4, 7, and 11 (or 10) days of
(§4) Titration curves from the MTT cell viability assay performed after 7 days of treatment of KOPN8 ,
(§5) MOLM13 and MV4;11 cell lines harboring MLL1 translocation (MLL1-r) or K562 cell line (non-
(§6) Representative graphs are shown
(§7) from two independent MTT experiments performed for each cell line.

[3] = system: MOLM13 cells; experiment: MTT cell viability assay; format: cell-based, human; conditions: MTT, 7 days
Method: as §1, §2, §3, §4, §5, §6, §7

[4] = system: MLL leukemia cells (MV4;11, MOLM13, KOPN8, RS4;11); experiment: MTT cell viability assay, MLL leukemia cells as a group; format: cell-based, human; conditions: Homo sapiens, MLL leukemia cells
Method: Human leukemia cells K562, MV4;11 and RS4;11 (purchased from ATCC) and KOPN8, MOLM13 (purchased from DSMZ) were cultured in RPMI 1640 (Invitrogen) supplemented with 10% heat inactivated (h.i.) FBS and 1% penicillin/streptomycin (Invitrogen). SET2 cells (purchased from DSMZ) were cultured in RPMI 1640 supplemented with 20% h.i. FBS and 1% penicillin/streptomycin. Cells were plated at 1 × 10^5 to 2 × 10^5 cells/mL depending on cell line and treated with 0.25% DMSO or varying concentrations of compounds and incubated at 37 °C, 5% CO2 incubator for 7 days. Media was changed on day 3 or 4 and compounds were resupplied. […] Cell suspensions (100 μL) were transferred to the 96-well plates for each sample in quadruplicate at the time of media change. At day 7, 10 µL of MTT reagent (M6494, Molecular Probes™) was added to each well of the 96 well plate and incubated at 37 °C for 4 h. The formazan was then solubilized by adding 100 µL acidified 10% SDS solution and incubated at 37 °C overnight. Plates were read for absorbance at 570 nm using a PHERAstar BMG microplate reader. The experiments were performed two times in quadruplicates with calculation of mean and SD for each condition. Data were analyzed in Prism 8.0.0 to obtain GI50 values.
Supplementary Figure 4. Cell viability assay for AS-6 in MLL leukemia cell lines. Titration curves from the MTT cell viability assay performed after 7 days of treatment of human MLL1- […]
replicates. Representative graphs are shown from two independent MTT experiments performed […]
as §2
Titration curves from the MTT cell viability assay performed after 4, 7, and 11 (or 10) days of […]
Titration curves from the MTT cell viability assay performed after 7 days of treatment of KOPN8 , MOLM13 and MV4;11 cell lines harboring MLL1 translocation (MLL1-r) or K562 cell line (non- […]
Representative graphs are shown from two independent MTT experiments performed for each cell line. GI50 values correspond to […]

[5] = biological target: ASH1L SET domain (2069–2288) (Homo sapiens, UniProt Q9NR48); experiment: Isothermal titration calorimetry (ITC); conditions: for kcal/mole of injectant: ITC isotherm
Method: All samples were extensively degassed by vacuum aspiration for 20 min prior to measurements. […] All titration data were analyzed with a single-site fitting model using Origin 7.0.

[6] = Log[compound] (M) -5.30642 (4: -5.30643)

- pIC50 [1]: 4.82
- % activity ([1]; Log[compound] (M) -3.69897): 9.186% and 9.699%
- % activity ([1]; Log[compound] (M) -4.17609): 18.9348% and 13.291%
- % activity ([1]; Log[compound] (M) -4.65321): 40.9235% and 30.2223%
- % activity ([1]; Log[compound] (M) -5.13033): 68.7027% and 45.0281%
- % activity ([1]; Log[compound] (M) -5.60746): 106.01% and 80.1368%
- % activity ([1]; Log[compound] (M) -6.08458): 97.0728% and 88.0528%
- % activity ([1]; Log[compound] (M) -6.5617): 107.183% and 116.125%
SMILES: NC(=S)c1cccc(-c2cn(CCO)c3ccccc23)c1 [compound 3]

- pIC50 [1]: 4.64 and 4.63
- % activity ([1]; Log[compound] (M) -3.39794): 6.033% and 2.5275%
- % activity ([1]; Log[compound] (M) -3.87506): 27.0096% and 20.8578%
- % activity ([1]; Log[compound] (M) -4.35218): 40.1717% and 36.6844%
- % activity ([1]; Log[compound] (M) -4.8293): 67.3184% and 49.0775%
- % activity [1, 6]: 79.0319% and 80.9812%
- % activity ([1]; Log[compound] (M) -5.78355): 102.423% and 86.0958%
- % activity ([1]; Log[compound] (M) -6.26067): 109.022% and 106.93%
- % activity ([1]; Log[compound] (M) -6.73779): 106.089% and 90.3699%
SMILES: NCc1ccc2c(-c3cccc(C(N)=S)c3)c[nH]c2c1 [compound 4]

- pIC50 [1]: 4.30
- % activity ([1]; Log[compound] (M) -2.92082): -0.3683% and -0.3506%
- % activity ([1]; Log[compound] (M) -3.39794): 16.0357% and 15.8766%
- % activity ([1]; Log[compound] (M) -3.87506): 38.4321% and 41.7641%
- % activity ([1]; Log[compound] (M) -4.35218): 49.8512% and 57.5848%
- % activity ([1]; Log[compound] (M) -4.8293): 59.6441% and 71.2665%
- % activity [1, 6]: 79.3978% and 82.615%
- % activity ([1]; Log[compound] (M) -5.78355): 85.6112% and 97.322%
- % activity ([1]; Log[compound] (M) -6.26067): 88.298% and 98.5328%
SMILES: NC(=S)c1cccc(-c2c[nH]c3ccccc23)c1 [compound 2]

SMILES: CS(=O)(=O)N1CCC(n2cc(-c3cccc(C(N)=S)c3)c3ccc(CNC(=O)Cc4c[nH]cn4)cc32)CC1 [AS-6]
- % activity MV4;11 ([2]; log[compound] -4.30103): 54.5576% and 57.6227% and 55.8763% and 56.7674%
- % activity MV4;11 ([2]; log[compound] -4.60206): 56.8386% and 61.0443% and 58.6207% and 61.2225%
- % activity MV4;11 ([2]; log[compound] -4.90309): 61.2938% and 67.4597% and 60.9374%
- % activity MV4;11 ([2]; log[compound] -5.20412): 76.1205% and 82.5002% and 82.4289% and 79.6846%
- % activity MV4;11 ([2]; log[compound] -5.50515): 94.9746% and 100.606% and 92.9787% and 93.7272%
- % activity MV4;11 ([2]; log[compound] -5.80618): 95.5805% and 97.9685% and 95.0102% and 103.208%
- % activity MV4;11 ([2]; log[compound] -6.10721): 95.9013% and 98.3962% and 101.354% and 104.348%
- % activity MOLM13 ([3]; log[compound] -4.30103): 44.6695% and 48.1072% and 45.3243%
- % activity MOLM13 ([3]; log[compound] -4.60206): 58.0929% and 58.2566% and 58.584% and 59.3207%
- % activity MOLM13 ([3]; log[compound] -4.90309): 66.769% and 64.8864% and 66.8508%
- % activity MOLM13 ([3]; log[compound] -5.20412): 75.8543% and 77.8187% and 79.7831% and 79.8649%
- % activity MOLM13 ([3]; log[compound] -5.50515): 91.8969% and 80.7653% and 85.3489% and 88.2955%
- % activity MOLM13 ([3]; log[compound] -5.80618): 93.7794% and 90.9965% and 88.7047% and 81.3382%
- % activity MOLM13 ([3]; log[compound] -6.10721): 102.456% and 101.555% and 98.1993% and 97.7901%
- GI50 [4]: ~50 µM

- improvement of the activity versus the original fragment hit [1]: over 200 fold
- pIC50 [1]: 5.40
- % activity ([1]; Log[compound] (M) -3.69897): 2.662% and 1.923%
- % activity ([1]; Log[compound] (M) -4.17609): 6.814% and 8.134%
- % activity ([1]; Log[compound] (M) -4.65321): 17.9312% and 20.7044%
- % activity ([1]; Log[compound] (M) -5.13033): 34.0137% and 31.5644%
- % activity ([1]; Log[compound] (M) -5.60746): 45.8867% and 60.6988%
- % activity ([1]; Log[compound] (M) -6.08458): 80.7749% and 70.6538%
- % activity ([1]; Log[compound] (M) -6.5617): 92.8804% and 81.5471%
- % activity ([1]; Log[compound] (M) -7.03882): 105.285% and 87.6496%
- pKd [5]: 5.21
- N (stoichiometry of binding) ([5]; ITC): 1.1
- kcal/mole of injectant ([5]; ASH1L-AS-5 molar ratio 0.12083): -11648.3 kcal/mol
- kcal/mole of injectant ([5]; ASH1L-AS-5 molar ratio 0.18186): -13231.7 kcal/mol
- kcal/mole of injectant ([5]; ASH1L-AS-5 molar ratio 0.2433): -11678.6 kcal/mol
- kcal/mole of injectant ([5]; ASH1L-AS-5 molar ratio 0.30515): -11475.1 kcal/mol
- kcal/mole of injectant ([5]; ASH1L-AS-5 molar ratio 0.36741): -11317.2 kcal/mol
- kcal/mole of injectant ([5]; ASH1L-AS-5 molar ratio 0.43008): -10998.9 kcal/mol
- kcal/mole of injectant ([5]; ASH1L-AS-5 molar ratio 0.49316): -10679.7 kcal/mol
- kcal/mole of injectant ([5]; ASH1L-AS-5 molar ratio 0.55666): -10389.6 kcal/mol
- kcal/mole of injectant ([5]; ASH1L-AS-5 molar ratio 0.62056): -10042.7 kcal/mol
- kcal/mole of injectant ([5]; ASH1L-AS-5 molar ratio 0.68487): -9579.7 kcal/mol
- kcal/mole of injectant ([5]; ASH1L-AS-5 molar ratio 0.7496): -9123.74 kcal/mol
- kcal/mole of injectant ([5]; ASH1L-AS-5 molar ratio 0.81473): -8548.86 kcal/mol
- kcal/mole of injectant ([5]; ASH1L-AS-5 molar ratio 0.88027): -7938.47 kcal/mol
- kcal/mole of injectant ([5]; ASH1L-AS-5 molar ratio 0.94623): -7340.59 kcal/mol
- kcal/mole of injectant ([5]; ASH1L-AS-5 molar ratio 1.0126): -6928.78 kcal/mol
- kcal/mole of injectant ([5]; ASH1L-AS-5 molar ratio 1.07937): -5852.59 kcal/mol
- kcal/mole of injectant ([5]; ASH1L-AS-5 molar ratio 1.14656): -5058.91 kcal/mol
- kcal/mole of injectant ([5]; ASH1L-AS-5 molar ratio 1.21416): -4429.92 kcal/mol
- kcal/mole of injectant ([5]; ASH1L-AS-5 molar ratio 1.28216): -3902.54 kcal/mol
- kcal/mole of injectant ([5]; ASH1L-AS-5 molar ratio 1.35058): -3390.49 kcal/mol
- kcal/mole of injectant ([5]; ASH1L-AS-5 molar ratio 1.41941): -2944.08 kcal/mol
- kcal/mole of injectant ([5]; ASH1L-AS-5 molar ratio 1.48865): -2536.04 kcal/mol
- kcal/mole of injectant ([5]; ASH1L-AS-5 molar ratio 1.5583): -2250.86 kcal/mol
- kcal/mole of injectant ([5]; ASH1L-AS-5 molar ratio 1.62836): -1941.24 kcal/mol
- kcal/mole of injectant ([5]; ASH1L-AS-5 molar ratio 1.69883): -1790.53 kcal/mol
- kcal/mole of injectant ([5]; ASH1L-AS-5 molar ratio 1.76971): -1545.36 kcal/mol
- kcal/mole of injectant ([5]; ASH1L-AS-5 molar ratio 1.841): -1413.63 kcal/mol
- kcal/mole of injectant ([5]; ASH1L-AS-5 molar ratio 1.9127): -1226.06 kcal/mol
SMILES: NCc1ccc2c(-c3cccc(C(N)=S)c3)cn(CCO)c2c1 [AS-5]
